Data set [1] is described as follows: 5% mass reduction temperature (TG-DTA). The note with it: nitrogen atmosphere, 50 to 400° C., heating rate 10° C./min. It is filed as physicochemical. How it is done:
(5% Mass Reduction Temperature)
The temperature, at which the mass of the sample is reduced by 5% by mass, was measured using a Thermogravimeter-Differential Thermal Analyzer (TG-DTA) (manufactured by PerkinElmer, Inc., “TGA-4000”) in a nitrogen atmosphere, under the condition of a measurement temperature range of 50 to 400° C. with a heating rate of 10° C./min.

Data set [2] can be described thus: Visual confirmation of extruded thread shaped sample (compatibility of resin and additive). The class given is physicochemical. Particulars: thread shaped sample extruded from the resin composition, visually confirmed. As to the method:
When a thread shaped sample obtained by extruding the resin composition was visually confirmed, the resin and the additive were compatible with each other without becoming cloudy in each of samples.
For each of Examples, the PA66 as a resin and AAD-FL as an additive were kneaded at a ratio shown in Table 3 to prepare a resin composition. Kneading was performed using a twin-screw extruder (manufactured by Parker Corporation, “HK25D”, L/D=41, screw diameter: 25 mm) under the conditions of a temperature of 270° C., a screw rotation speed of 150 rpm, and a discharge amount of 6 kg/hour. When a thread shaped sample obtained by extruding the resin composition was visually confirmed, the resin and the additive were compatible with each other without becoming cloudy in each of samples in Examples 4 to 6, as in Example 3.

In the case of `CC(C)NC(=O)CCC1(CCC(=O)NC(C)C)c2ccccc2-c2ccccc21` [NIPAM-FL, 9,9-bis[2-(N-isopropylcarbamoyl)ethyl]fluorene], the “5% mass reduction temperature” value in data set [1] was determined as 257 °C. As to `CCN(CC)C(=O)CCC1(CCC(=O)N(CC)CC)c2ccccc2-c2ccccc21` [DEAA-FL, 9,9-bis[2-(N,N-diethylcarbamoyl)ethyl]fluorene], the “5% mass reduction temperature” value in data set [1] was 294 °C. Take `CN(C)C(=O)CCC1(CCC(=O)N(C)C)c2ccccc2-c2ccccc21` [DMAA-FL, 9,9-bis[2-(N,N-dimethylcarbamoyl)ethyl]fluorene]: in data set [1], the “5% mass reduction temperature” value was determined as 318 °C. In the case of `NC(=O)CCC1(CCC(N)=O)c2ccccc2-c2ccccc21` [AAD-FL, 9,9-bis(2-carbamoylethyl)fluorene], the “5% mass reduction temperature” value in data set [1] stood at 320 °C. The “compatibility of resin and additive” value in data set [2] is given as “compatible with the resin”.

These data come from patent US11760717B2, “Resin composition and fluidity improvement method” (Osaka Gas Chemicals Co., Ltd., priority 2020, dated 2023).
